What all share (assay type): cell-based
One assay relates to Klebsiella 4. Description: agar dilution MIC, Klebsiella 4. The note with it: Mueller-Hinton agar, 10^5 CFU per point, about 18 hrs, 37° C., read-out: Minimum Inhibitory Concentrations. The procedure: (§1) The antibacterial activity of the compounds according to the present invention was evaluated against pathogenic strains of recent clinical isolation, both gram positive and gram negative. Minimum inhibitory concentration (MIC) were determined by the diluition method in agar, using a multipoint inoculator (Denley Techn. Ltd. England). As a culture medium Mueller-Hinton agar (DIFCO) in Petri capsules was used.
(§2) The bacterial inoculum, originating from an overnight broth was inoculated by a multipoint and was standardized in such a way as to obtain 10^5 colony forming units (CFU) per point.
(§3) After about 18 hrs incubation in a thermostat at 37° C., the bacterial growth was evaluated on each plate.
(In agar dilution, organisms are placed on agar that contains the substance at set levels.)

In the next assay the test system is Staphylococcus 7. Description: agar dilution MIC, Staphylococcus 7. The note with it: Mueller-Hinton agar, 10^5 CFU per point, about 18 hrs, 37° C., read-out: Minimum Inhibitory Concentrations. The protocol: as §1, §2, §3
Another assay concerns E. coli 963. The assay can be described thus: agar dilution MIC, E. coli 963. The note with it: Escherichia coli, Mueller-Hinton agar, 10^5 CFU per point, about 18 hrs, 37° C., read-out: Minimum Inhibitory Concentrations. The protocol:
as §1, §2, §3

A further assay concerns Klebsiella 5. The assay can be described thus: agar dilution MIC, Klebsiella 5. The note with it: Mueller-Hinton agar, 10^5 CFU per point, about 18 hrs, 37° C., read-out: Minimum Inhibitory Concentrations. The procedure:
as §1, §2, §3

A further assay concerns Enterobacter 2653. Description: agar dilution MIC, Enterobacter 2653. The note with it: Mueller-Hinton agar, 10^5 CFU per point, about 18 hrs, 37° C., read-out: Minimum Inhibitory Concentrations. The protocol: as §1, §2, §3
A further assay has as its system Citrobacter 118. Description: agar dilution MIC, Citrobacter 118. The note with it: Mueller-Hinton agar, 10^5 CFU per point, about 18 hrs, 37° C., read-out: Minimum Inhibitory Concentrations. The procedure:
as §1, §2, §3

A further assay relates to Staphylococcus 29. The assay can be described thus: agar dilution MIC, Staphylococcus 29. The note with it: Mueller-Hinton agar, 10^5 CFU per point, about 18 hrs, 37° C., read-out: Minimum Inhibitory Concentrations. The procedure: as §1, §2, §3
The subject of another assay is Salmonella 9. Description: agar dilution MIC, Salmonella 9. The note with it: Mueller-Hinton agar, 10^5 CFU per point, about 18 hrs, 37° C., read-out: Minimum Inhibitory Concentrations. The procedure: as §1, §2, §3
The subject of a further assay is Staphylococcus 27. The assay can be described thus: agar dilution MIC, Staphylococcus 27. The note with it: Mueller-Hinton agar, 10^5 CFU per point, about 18 hrs, 37° C., read-out: Minimum Inhibitory Concentrations. The protocol:
as §1, §2, §3

The test system of the next assay is Citrobacter 120. The assay can be described thus: agar dilution MIC, Citrobacter 120. The following applies: Mueller-Hinton agar, 10^5 CFU per point, about 18 hrs, 37° C., read-out: Minimum Inhibitory Concentrations. The procedure:
as §1, §2, §3

The subject of another assay is Pseudomonas 19. The assay can be described thus: agar dilution MIC, Pseudomonas 19. The note with it: Mueller-Hinton agar, 10^5 CFU per point, about 18 hrs, 37° C., read-out: Minimum Inhibitory Concentrations. The protocol:
as §1, §2, §3

The test system of a further assay is E. coli 15. The assay can be described thus: agar dilution MIC, E. coli 15. The note with it: Escherichia coli, Mueller-Hinton agar, 10^5 CFU per point, about 18 hrs, 37° C., read-out: Minimum Inhibitory Concentrations. The procedure: as §1, §2, §3
The subject of a further assay is Salmonella 10. Description: agar dilution MIC, Salmonella 10. The note with it: Mueller-Hinton agar, 10^5 CFU per point, about 18 hrs, 37° C., read-out: Minimum Inhibitory Concentrations. The protocol:
as §1, §2, §3

In another assay the test system is Pseudomonas 2437. Description: agar dilution MIC, Pseudomonas 2437. The following applies: Mueller-Hinton agar, 10^5 CFU per point, about 18 hrs, 37° C., read-out: Minimum Inhibitory Concentrations. The procedure:
as §1, §2, §3

The subject of a further assay is Proteus 966. Description: agar dilution MIC, Proteus 966. The note with it: Mueller-Hinton agar, 10^5 CFU per point, about 18 hrs, 37° C., read-out: Minimum Inhibitory Concentrations. The procedure: as §1, §2, §3
A further assay concerns Enterobacter 41. Description: agar dilution MIC, Enterobacter 41. The note with it: Mueller-Hinton agar, 10^5 CFU per point, about 18 hrs, 37° C., read-out: Minimum Inhibitory Concentrations. The procedure:
as §1, §2, §3

For the next assay, the system named is Proteus 25. Description: agar dilution MIC, Proteus 25. The following applies: Mueller-Hinton agar, 10^5 CFU per point, about 18 hrs, 37° C., read-out: Minimum Inhibitory Concentrations. The procedure:
as §1, §2, §3

In brackets after ≈: the same amount, converted by molar mass. Where a name gives a salt, the structure may show the parent alone.

For `CCNCC1CCN(c2c(F)cc3c(=O)c(C(=O)O)cn4c3c2SCC4)C1` (stereo not drawn) [ex. 2, 10-[3[(ethylamino)methyl]-1-pyrrolidinyl]-9-fluoro-2,3-dihydro-7-oxo-7H-pyr ido [1,2,3 de][1,4]benzothiazine-6-carboxylic acid hydrochloride], the MIC with Klebsiella 4 is 2 µg/mL; in the assay with Staphylococcus 7, 1 µg/mL; in the assay with E. coli 963, 8 µg/mL; in the assay with Klebsiella 5 it was 8 µg/mL; with Enterobacter 2653, 1 µg/mL; in the assay with Citrobacter 118, 8 µg/mL. Moreover, the MIC in the assay on Staphylococcus 29 turned out to be 2 µg/mL; with Salmonella 9, 4 µg/mL; in the assay on Staphylococcus 27 it was 8 µg/mL; with Citrobacter 120 it was 8 µg/mL; with Pseudomonas 19, 128 µg/mL; in the assay on E. coli 15 it was 2 µg/mL. Moreover, the MIC with Salmonella 10 is 2 µg/mL; with Pseudomonas 2437 it was greater than 128 µg/mL; with Proteus 966, 8 µg/mL; in the assay with Enterobacter 41, 4 µg/mL; in the assay on Proteus 25 it was 8 µg/mL.

In the case of `CCNCC1CCN(c2c(F)cc3c(=O)c(C(=O)O)cn4c3c2OCC4C)C1` (stereo not drawn) [E.P. 0106489 ex. 20, reference compound], the MIC was determined as 0.5 µg/mL (≈ 1.28 µM) in the assay on Klebsiella 4; 0.25 µg/mL (≈ 0.642 µM) in the assay with Staphylococcus 7; 2 µg/mL (≈ 5.14 µM) in the assay with E. coli 963; 2 µg/mL (≈ 5.14 µM) with Klebsiella 5; 0.25 µg/mL (≈ 0.642 µM) in the assay with Enterobacter 2653; 4 µg/mL (≈ 10.3 µM) in the assay on Citrobacter 118. Also, the MIC was found to be 0.5 µg/mL (≈ 1.28 µM) in the assay with Staphylococcus 29; 1 µg/mL (≈ 2.57 µM) with Salmonella 9; 0.25 µg/mL (≈ 0.642 µM) in the assay on Staphylococcus 27; 2 µg/mL (≈ 5.14 µM) with Citrobacter 120; 64 µg/mL (≈ 164 µM) in the assay with Pseudomonas 19; 0.5 µg/mL (≈ 1.28 µM) in the assay on E. coli 15. Besides, the MIC in the assay with Salmonella 10 stood at 1 µg/mL (≈ 2.57 µM); in the assay on Pseudomonas 2437 it was 128 µg/mL (≈ 329 µM); in the assay on Proteus 966, 2 µg/mL (≈ 5.14 µM); in the assay with Enterobacter 41, 1 µg/mL (≈ 2.57 µM); in the assay with Proteus 25, 1 µg/mL (≈ 2.57 µM).

As to `CCNCC1CCN(c2c(F)cc3c(=O)c(C(=O)O)cn4c3c2SCC4C)C1` (stereo not drawn) [ex. 1, 10-3-[(ethylamino)methyl]1-pyrrolidinyl]-9 fluoro-2,3-dihydro-3-methyl-7-oxo-7H-pyrido [1,2,3 de][1,4]benzothiazine-6-carboxylic acid hydrochloride], the MIC in the assay with Klebsiella 4 is 0.25 µg/mL; in the assay on Staphylococcus 7, 0.12 µg/mL; with E. coli 963, 2 µg/mL; in the assay on Klebsiella 5, 2 µg/mL; in the assay with Enterobacter 2653, 0.25 µg/mL; in the assay on Citrobacter 118 it was 2 µg/mL. Besides, the MIC in the assay on Staphylococcus 29 came to 0.25 µg/mL; with Salmonella 9, 0.5 µg/mL; with Staphylococcus 27, 0.25 µg/mL; with Citrobacter 120, 4 µg/mL; with Pseudomonas 19 it was 32 µg/mL; in the assay with E. coli 15, 0.5 µg/mL. In addition, the MIC came to 0.5 µg/mL in the assay with Salmonella 10; 64 µg/mL in the assay with Pseudomonas 2437; 4 µg/mL with Proteus 966; 0.5 µg/mL with Enterobacter 41; 4 µg/mL in the assay with Proteus 25.

These data come from US5066802A, “Process for preparing pyrido-benzothiazine derivatives having high antibacterial activity and high bioavailability to tissues” (Mediolanum Farmaceutici Srl., priority 1987, dated 1991).
